Consider 15 compounds from patent US8183254B2, “Inhibitors of JNK” (Roche Palo Alto LLC, priority 2008, dated 2012).

One data set has as its target Human JNK1α1 (Homo sapiens, UniProt P45983). Kind of data set: JNK assay in vitro (phosphorylation of GST-ATF2 with [γ-33P] ATP), JNK1. In kind it is biochemical. The note with it: Km concentrations of ATP and substrate. The method, then: (§1) JNK activity was measured by phosphorylation of GST-ATF2 (19-96) with [γ-^33P] ATP. […] Human JNK2α2 assay contains 1 nM enzyme, 1 μM ATF2, 8 μM ATP with 1 uCi [γ-^33P] ATP. Human JNK1α1 assay contains 2 nM enzyme, 1 μM ATF2, 6 μM ATP with 1 μCi [γ-^33P] ATP. Human JNK3 Upstate Biotech #14-501M) assay contains 2 nM enzyme, 1 μM ATF2, 4 μM ATP with 1 μCi [γ-^33P] ATP. The enzyme assay was carried out in the presence or absence of several compound concentrations. JNK and compound were pre-incubated for 10 min., followed by initiation of the enzymatic reaction by adding ATP and the substrate. The reaction mixture was incubated at 30° C. for 30 min. At the end of incubation, the reaction was terminated by transferring 25 μl of the reaction mixture to 150 μl of 10% glutathione Sepharose® slurry (Amersham # 27-4574-01) containing 135 mM EDTA. The reaction product was captured on the affinity resin, and washed on a filtration plate (Millipore, MABVNOB50) with phosphate buffered saline for six times to remove free radionucleotide. The incorporation of ^33P into ATF2 was quantified on a microplate scintillation counter (Packard Topcount). Compound inhibition potency on JNK was measured by IC50 value generated from ten concentration inhibition curves fitted into the 3-parameter model: % inhibition=Maximum/(1+(IC50/[Inhibitor])^slope). Data were analyzed on Microsoft Excel for parameter estimation.

The target of another data set is Human JNK2α2 (Homo sapiens, UniProt P45984). As to the kind of experiment: JNK assay in vitro (phosphorylation of GST-ATF2 with [γ-33P] ATP), JNK2. To be noted: Km concentrations of ATP and substrate. In kind it is biochemical. The method, then:
as §1

The subject of data set [1] is TNFα-induced IL-6 production. Kind of data set: Rat in vivo TNFα-induced IL-6 production assay. The note with it: oral gavage 30 min prior to TNF-α challenge, plasma IL-6 90 min after challenge, female Wistar-Han rats. The method, then: Female Wistar-Han rats procured from Charles River Laboratories were allowed to acclimate for one week prior to use and achieve an approximate body weight of 101-130 g. Rats were administered test compound (N=8 per compound) via oral gavage 30 min prior to an intraperitoneal challenge of 0.5 μg recombinant rat TNF-α (Biosource). Blood was collected via cardiocentesis 90 min after TNF-α challenge. Plasma was prepared using lithium heparin separation tubes (BD microtainer) and frozen at −80° C. until analyzed. IL-6 levels were determined using a rat specific IL-6 ELISA kit (Biosource). The percent inhibition and ED50 values (calculated as the dose of compound at which […] is 50% of the control value) were determined.

Sequence of Human JNK2α2 (P45984 whole entry): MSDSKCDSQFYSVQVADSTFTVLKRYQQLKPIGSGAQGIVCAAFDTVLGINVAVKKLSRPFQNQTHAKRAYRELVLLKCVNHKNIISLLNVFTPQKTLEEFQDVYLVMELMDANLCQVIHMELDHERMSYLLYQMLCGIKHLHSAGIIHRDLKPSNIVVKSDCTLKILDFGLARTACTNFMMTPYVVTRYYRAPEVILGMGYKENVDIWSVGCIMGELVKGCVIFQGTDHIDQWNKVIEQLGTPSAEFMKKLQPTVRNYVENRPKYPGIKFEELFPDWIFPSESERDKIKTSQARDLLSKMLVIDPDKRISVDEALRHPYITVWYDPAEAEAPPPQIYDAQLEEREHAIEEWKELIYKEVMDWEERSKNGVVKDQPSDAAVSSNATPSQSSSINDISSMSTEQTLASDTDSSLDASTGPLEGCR
Sequence of Human JNK1α1 (P45983 1-384 isoform P45983-2): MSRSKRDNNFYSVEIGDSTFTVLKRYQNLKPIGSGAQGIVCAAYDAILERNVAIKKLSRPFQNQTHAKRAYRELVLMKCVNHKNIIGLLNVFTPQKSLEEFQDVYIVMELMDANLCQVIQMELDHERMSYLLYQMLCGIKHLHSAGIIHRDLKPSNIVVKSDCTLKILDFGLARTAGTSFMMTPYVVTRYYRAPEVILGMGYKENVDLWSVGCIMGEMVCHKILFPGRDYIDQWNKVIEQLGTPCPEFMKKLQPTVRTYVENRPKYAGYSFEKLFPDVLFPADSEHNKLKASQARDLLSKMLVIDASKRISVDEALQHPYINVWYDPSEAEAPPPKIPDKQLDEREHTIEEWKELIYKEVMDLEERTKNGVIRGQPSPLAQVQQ

By IC50 is commonly meant the concentration needed to halve the response being measured. A low value points to inhibition by little substance. The term melting point denotes the temperature, or range, at which the solid turns liquid. Take `CN[C@H](C(=O)OC1CCN(C(=O)[C@H]2CC[C@H](Nc3nccc(-n4ccc5c(OCCCS(C)(=O)=O)cccc54)n3)CC2)CC1)C(C)C` (stereo in doubt) [Compound I-15, (R)-3-Methyl-2-methylamino-butyric acid 1-(4-{4-[4-(3-methanesulfonyl-propoxy)-indol-1-yl]-pyrimidin-2-ylamino}-cyclohexanecarbonyl)-piperidin-4-yl ester]: the melting point was 105 to 107 °C. Further, the IC50 at Human JNK1α1 came out at 10 nM. Besides, half-maximal inhibition at Human JNK2α2 (IC50) required 40.5 nM.
Compound `C[C@H](N)C(=O)OC1CCN(C(=O)[C@H]2CC[C@H](Nc3nccc(-n4ccc5c(OCCCS(C)(=O)=O)cccc54)n3)CC2)CC1` [Compound I-1] returned a melting point of 202.2 to 203.2 °C. Inhibition on Human JNK1α1 was half-maximal at 9.4 nM (IC50). This compound registered a half-maximal inhibitory concentration (IC50) on Human JNK2α2 of 40.8 nM.
In the same order, the values of `CC(C)(N)C(=O)OC1CCN(C(=O)[C@H]2CC[C@H](Nc3nccc(-n4ccc5c(OCCCS(C)(=O)=O)cccc54)n3)CC2)CC1` [Compound I-2, 2-Amino-2-methyl-propionic acid 1-(4-{4-[4-(3-methanesulfonyl-propoxy)-indol-1-yl]-pyrimidin-2-ylamino}-cyclohexanecarbonyl)-piperidin-4-yl ester] are 219 to 220 °C, 6.8 nM and 34.7 nM.
In the same order, the values of `CC[C@H](C)[C@H](N)C(=O)OC1CCN(C(=O)[C@H]2CC[C@H](Nc3nccc(-n4ccc5c(OCCCS(C)(=O)=O)cccc54)n3)CC2)CC1` [Compound I-4, (2S,3S)-2-Amino-3-methyl-pentanoic acid 1-(4-{4-[4-(3-methanesulfonyl-propoxy)-indol-1-yl]-pyrimidin-2-ylamino}-cyclohexanecarbonyl)-piperidin-4-yl ester] are 137 to 138 °C, 11.6 nM and 51.9 nM.
With `CS(=O)(=O)CCCOc1cccc2c1ccn2-c1ccnc(N[C@H]2CC[C@H](C(=O)N3CCC(OC(=O)[C@@H]4CCCN4)CC3)CC2)n1` [Compound I-5, (S)-Pyrrolidine-2-carboxylic acid 1-(4-{4-[4-(3-methanesulfonyl-propoxy)-indol-1-yl]-pyrimidin-2-ylamino}-cyclohexanecarbonyl)-piperidin-4-yl ester], the melting point was in the range of 147 to 148 °C. Also, the IC50 on Human JNK1α1 stood at 7.4 nM. At Human JNK2α2, this compound yielded a half-maximal inhibitory concentration (IC50) of 27.4 nM.
In the same order, the values of `CC(C)[C@H](N)C(=O)OC1CCN(C(=O)[C@H]2CC[C@H](Nc3nccc(-n4ccc5c(OCCCS(C)(=O)=O)cccc54)n3)CC2)CC1` [Compound I-6, (S)-2-Amino-3-methyl-butyric acid 1-(4-{4-[4-(3-methanesulfonyl-propoxy)-indol-1-yl]-pyrimidin-2-ylamino}-cyclohexanecarbonyl)-piperidin-4-yl ester] are 163 to 164 °C, 10.5 nM and 40.2 nM.
The matching figures for `CN1CCC[C@@H]1C(=O)OC1CCN(C(=O)[C@H]2CC[C@H](Nc3nccc(-n4ccc5c(OCCCS(C)(=O)=O)cccc54)n3)CC2)CC1` [Compound I-7, (R)-1-Methyl-pyrrolidine-2-carboxylic acid 1-(4-{4-[4-(3-methanesulfonyl-propoxy)-indol-1-yl]-pyrimidin-2-ylamino}-cyclohexanecarbonyl)-piperidin-4-yl ester]: 127 to 128 °C, 15 nM and 55 nM.
As for `CN(C)CC(=O)OC1CCN(C(=O)[C@H]2CC[C@H](Nc3nccc(-n4ccc5c(OCCCS(C)(=O)=O)cccc54)n3)CC2)CC1` [Compound I-8, Dimethylamino-acid acid 1-(4-{4-[4-(3-methanesulfonyl-propoxy)-indol-1-yl]-pyrimidin-2-ylamino}-cyclohexanecarbonyl)-piperidin-4-yl ester], the melting point lay within 177 to 178 °C. On Human JNK1α1, this compound had an IC50 of 23.8 nM. Also, the IC50 against Human JNK2α2 worked out at 67.6 nM. The “IL-6 Inhibition” value in data set [1] (dose 10 mg/Kg) is reported as 28.9%. The “IL-6 Inhibition” value in data set [1] (dose 30 mg/Kg) turned out to be 40.2%.
The matching figures for `CN[C@@H](C)C(=O)OC1CCN(C(=O)[C@H]2CC[C@H](Nc3nccc(-n4ccc5c(OCCCS(C)(=O)=O)cccc54)n3)CC2)CC1` [Compound I-9, (S)-2-methylamino-propionic acid 1-(4-{4-[4-(3-methanesulfonyl-propoxy)-indol-1-yl]-pyrimidin-2-ylamino}-cyclohexanecarbonyl)-piperidin-4-yl ester]: 182 to 183 °C, 15.3 nM, 50.9 nM, 28.1% and 49.1%.
For the compound `CC[C@H](C)[C@@H](N)C(=O)OC1CCN(C(=O)[C@H]2CC[C@H](Nc3nccc(-n4ccc5c(OCCCS(C)(=O)=O)cccc54)n3)CC2)CC1` [Compound I-10, (2R,3S)-2-Amino-3-methyl-pentanoic acid 1-(4-{4-[4-(3-methanesulfonyl-propoxy)-indol-1-yl]-pyrimidin-2-ylamino}-cyclohexanecarbonyl)-piperidin-4-yl ester], the melting point fell in the range of 150 to 200 °C.
Compound `CC[C@@H](C)[C@@H](N)C(=O)OC1CCN(C(=O)[C@H]2CC[C@H](Nc3nccc(-n4ccc5c(OCCCS(C)(=O)=O)cccc54)n3)CC2)CC1` [Compound I-11, (2R,3R)-2-Amino-3-methyl-pentanoic acid 1-(4-{4-[4-(3-methanesulfonyl-propoxy)-indol-1-yl]-pyrimidin-2-ylamino}-cyclohexanecarbonyl)-piperidin-4-yl ester] had a melting point of 147 to 148 °C. The same compound registered an IC50 against Human JNK1α1 of 34.7 nM. This compound also came in with an IC50 against Human JNK2α2 of 115 nM.
The matching figures for `COP(=O)(OC)OC1CCN(C(=O)[C@H]2CC[C@H](Nc3nccc(-n4ccc5c(OCCCS(C)(=O)=O)cccc54)n3)CC2)CC1` [Compound I-12, Phosphoric acid 1-(4-{4-[4-(3-methanesulfonyl-propoxy)-indol-1-yl]-pyrimidin-2-ylamino}-cyclohexanecarbonyl)-piperidin-4-yl ester dimethyl ester]: 135 to 136 °C, 48.1 nM and 162 nM.
In the same order, the values of `CS(=O)(=O)CCCOc1cccc2c1ccn2-c1ccnc(N[C@H]2CC[C@H](C(=O)N3CCC(OP(=O)(O)O)CC3)CC2)n1` [Compound I-13] are 201.3 to 208.8 °C, 10.8 nM and 56.8 nM.
The matching figures for `CS(=O)(=O)CCCOc1cccc2c1ccn2-c1ccnc(N[C@H]2CC[C@H](C(=O)N3CCC(OC(=O)CCC(=O)O)CC3)CC2)n1` [Compound I-14]: 214.2 to 217.7 °C, 27.9 nM and 67.9 nM.
The compound `CN1CCC[C@H]1C(=O)OC1CCN(C(=O)[C@H]2CC[C@H](Nc3nccc(-n4ccc5c(OCCCS(C)(=O)=O)cccc54)n3)CC2)CC1` [Compound I-27, (S)-1-Methyl-pyrrolidine-2-carboxylic acid 1-(4-{4-[4-(3-methanesulfonyl-propoxy)-indol-1-yl]-pyrimidin-2-ylamino}-cyclohexanecarbonyl)-piperidin-4-yl ester] gave a melting point of 127 to 128 °C. The compound also returned an IC50 against Human JNK1α1 of 17.6 nM. Further, on Human JNK2α2, 57.2 nM corresponded to half-maximal inhibition (IC50). The “IL-6 Inhibition” value in data set [1] (dose 10 mg/Kg) was 35.8%. The “IL-6 Inhibition” value in data set [1] (dose 30 mg/Kg) turned out to be 50.7%.
